Measured values taken from patent publication US20240116985A1, “STAPLED PEPTIDES AND METHODS THEREOF” (priority 2020, published 2024).
Converted amounts (≈) assume the structure as drawn. Read-outs that look alike come from different tables or passages of the source.

Assays:
[1] = molecular target: T1, full-length beta-Catenin (Uniprot ID P35222) (Homo sapiens, UniProt P35222); test: Fluorescence polarization IC50 (beta-catenin / 5FAM-TCF4 10-53 competition); assay type: binding
T1 construct: 10 nM full-length beta-Catenin (Uniprot ID P35222)
T1 sequence (P35222 1-781): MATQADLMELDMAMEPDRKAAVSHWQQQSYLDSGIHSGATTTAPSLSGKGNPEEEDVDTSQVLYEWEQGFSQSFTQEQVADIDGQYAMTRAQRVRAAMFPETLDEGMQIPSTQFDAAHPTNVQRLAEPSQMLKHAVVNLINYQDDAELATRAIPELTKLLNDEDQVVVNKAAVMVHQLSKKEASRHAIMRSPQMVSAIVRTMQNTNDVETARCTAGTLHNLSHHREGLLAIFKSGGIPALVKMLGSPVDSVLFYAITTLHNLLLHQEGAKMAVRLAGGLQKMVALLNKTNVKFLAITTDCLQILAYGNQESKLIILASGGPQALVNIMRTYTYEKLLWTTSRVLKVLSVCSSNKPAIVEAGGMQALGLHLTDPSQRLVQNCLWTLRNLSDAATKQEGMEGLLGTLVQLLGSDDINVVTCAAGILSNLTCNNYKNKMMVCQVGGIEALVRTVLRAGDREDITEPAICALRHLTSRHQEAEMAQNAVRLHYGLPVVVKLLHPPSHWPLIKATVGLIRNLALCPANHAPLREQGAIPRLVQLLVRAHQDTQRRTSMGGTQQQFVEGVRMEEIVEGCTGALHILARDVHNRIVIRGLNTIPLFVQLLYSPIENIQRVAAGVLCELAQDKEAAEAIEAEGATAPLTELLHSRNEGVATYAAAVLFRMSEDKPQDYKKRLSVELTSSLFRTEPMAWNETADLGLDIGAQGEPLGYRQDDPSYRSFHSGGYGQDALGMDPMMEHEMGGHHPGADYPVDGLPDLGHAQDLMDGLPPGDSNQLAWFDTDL

CHI Log D procedure = assay type: physicochemical
Solubility in PBS = assay type: physicochemical
How it was run: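 HPLC quantitation of peptide remaining in the PBS supernatant after ultracentrifugation, referenced to a 50 μM solution in DMSO.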

[2] = fluorescence polarization, beta-catenin, read-out: FP EC50
[3] = fluorescence polarization, read-out: beta-Catenin FP IC50

| CHI Log D (CHI Log D procedure; pH 7.4) | Solubility (Solubility in PBS) [µM] | IC50 ([1]; read-out: beta-Catenin FP IC50) [nM] | chromatographic logD (CHI Log D procedure; pH 7.4, CHI Log D) | IC50 [1, 3] [nM] | Solubility (Solubility in PBS; Solubility (uM)) [µM] | Structure (SMILES) | other results |
| --- | --- | --- | --- | --- | --- | --- | --- |
| 2.086 | 49 (≈ 98.1 µg/mL) | 2260 | – | – | – | CC(=O)N1CCC[C@]12CC=CCCCC1(CCCC=CCCCOC(=O)N3CC[C@@](C(=O)N[C@@H](Cc4ccsc4)C(=O)N[C@@H](Cc4csc5ccccc45)C(=O)N[C@@H](C(N)=O)[C@H](C)O)(C3)NC(=O)[C@H](CC(N)=O)NC(=O)[C@H](Cc3ccccc3)NC(=O)[C@H](C)NC(=O)[C@H](C)NC(=O)[C@H](CN(CC(=O)O)CC(F)(F)F)NC(=O)[C@H](CC(=O)O)NC1=O)NC(=O)[C@H](CC(C)(C)C)NC(=O)[C@H](CC(=O)O)NC2=O (stereo partly drawn) [I-949, Ac-PL3-Asp-Npg-B5-Asp-TfeGA-Ala-Ala-Phe-Asn-PyrS2-3Thi-BztA-dThr-NH2] | IC50 [1, 2]: 2260 nM |
| – | 10 (≈ 19.7 µg/mL) | 64 | 2.99 | – | – | CC(=O)N1CCC[C@]12CC=CCCCC1(CCCC=CCCCOC(=O)N3CC[C@@](C(=O)N[C@@H](Cc4ccccc4Cl)C(=O)N[C@@H](Cc4csc5ccccc45)C(=O)N[C@@H](CO)C(N)=O)(C3)NC(=O)[C@H](CC3CCCCC3)NC(=O)[C@H](Cc3ccccc3)NC(=O)[C@H](C)NC(=O)[C@H](C)NC(=O)[C@H](CC(=O)O)NC(=O)[C@H](CC(=O)O)NC1=O)NC(=O)[C@H](CC1CCCCC1)NC(=O)[C@H](CC(=O)O)NC2=O (stereo partly drawn) [I-1113, Ac-PL3-Asp-Cha-B5-Asp-Asp-Ala-Ala-Phe-Cha-PyrS2-2C1F-BztA-Ser-NH2] | – |
| – | – | – | 2.75 | 4470 | 23 (≈ 42 µg/mL) | CCNC(=O)C[C@@H]1NC(=O)C2(CCCC=CCCCCCC[C@@](C)(C(=O)N[C@@H](Cc3ccccc3)C(=O)N[C@@H](Cc3csc4ccccc34)C(=O)N[C@@H](CCC(N)=O)C(N)=O)NC(=O)[C@H](C(C)C)NC(=O)[C@H](Cc3ccccc3)NC(=O)[C@H](C)NC(=O)[C@H](C)NC(=O)[C@H](CC(=O)O)NC1=O)CCCC=CC[C@]1(CCCN1C(C)=O)C(=O)N[C@@H](CC(=O)O)C(=O)N[C@@H](C)C(=O)N2 (stereo partly drawn) [I-536, Ac-PL3-Asp-Ala-B5-[NHEt]AsnR-Asp-Ala-Ala-Phe-Val-S8-Phe-BztA-Gln-NH2] | – |
| 2.242 | 49 (≈ 90.1 µg/mL) | – | – | – | – | CC(=O)N1CCC[C@]12CC=CCCCC1(CCCC=CCCCCCC[C@@](C)(C(=O)N[C@@H](Cc3ccccc3)C(=O)N[C@@H](Cc3csc4ccccc34)C(=O)N[C@@H](CCC(N)=O)C(N)=O)NC(=O)[C@H](C)NC(=O)[C@H](Cc3cccc(C(F)(F)F)c3)NC(=O)[C@H](C)NC(=O)[C@H](C)NC(=O)[C@H](CC(=O)O)NC(=O)[C@H](CC(=O)O)NC1=O)NC(=O)[C@H](C)NC(=O)[C@H](CC(=O)O)NC2=O (stereo partly drawn) [I-374, Ac-PL3-Asp-Ala-B5-Asp-Asp-Ala-Ala-3F3MeF-Ala-S8-Phe-BztA-Gln-NH2] | IC50 ([1]; Table E2-1, read-out: beta-Catenin FP IC50): 3010 nM; IC50 [1, 2]: 3010 nM |
| 2.665 | 33 (≈ 57.7 µg/mL) | – | – | 75 | – | CC[C@H](C)[C@@H]1NC(=O)[C@H](CC(=O)O)NC(=O)[C@]2(CC=CCCCC3(CCCC=CCCCCCC[C@@](C)(C(=O)N[C@@H](Cc4ccsc4)C(=O)N[C@@H](Cc4csc5ccccc45)C(N)=O)NC(=O)[C@H](CC(N)=O)NC(=O)[C@H](Cc4ccccc4)NC(=O)[C@H](C)NC(=O)[C@H](C)NC(=O)[C@H](CCC(=O)O)NC(=O)[C@H](CC(=O)O)NC3=O)NC1=O)CCCN2C(C)=O (stereo partly drawn) [I-720, Ac-PL3-Asp-Ile-B5-Asp-Glu-Ala-Ala-Phe-Asn-S8-3Thi-BztA-NH2] | IC50 ([1]; read-out: FP EC50): 75 nM |
| – | – | – | 2.75 | 76 | 40 (≈ 79.3 µg/mL) | CC[C@H](C)[C@@H]1NC(=O)[C@H](CC(=O)O)NC(=O)[C@]2(CC=CCCCC3(CCCC=CCCCCCC[C@@](C)(C(=O)N[C@@H](Cc4ccsc4)C(=O)N[C@@H](Cc4csc5ccccc45)C(=O)N[C@@H](Cc4c[nH]cn4)C(N)=O)NC(=O)[C@H](CC(N)=O)NC(=O)[C@H](Cc4ccccc4)NC(=O)[C@H](C)NC(=O)[C@H](C)NC(=O)[C@H](CN(CC(=O)O)CC(F)(F)F)NC(=O)[C@H](CC(=O)O)NC3=O)NC1=O)CCCN2C(C)=O (stereo partly drawn) [I-702, Ac-PL3-Asp-Ile-B5-Asp-TfeGA-Ala-Ala-Phe-Asn-S8-3Thi-BztA-His-NH2] | – |
| 1.918 | 46 (≈ 90.2 µg/mL) | 900 | – | – | – | CC(=O)N1CCC[C@]12CC=CCCCC1(CCCC=CCCCOC(=O)N3CC[C@@](C(=O)N[C@@H](Cc4ccsc4)C(=O)N[C@@H](Cc4csc5ccccc45)C(=O)N[C@@H](CO)C(N)=O)(C3)NC(=O)[C@H](CO)NC(=O)[C@H](Cc3ccccc3)NC(=O)[C@H](C)NC(=O)[C@H](C)NC(=O)[C@H](CN(CC(=O)O)CC(F)(F)F)NC(=O)[C@H](CC(=O)O)NC1=O)NC(=O)[C@H](CC(C)(C)C)NC(=O)[C@H](CC(=O)O)NC2=O (stereo partly drawn) [I-954, Ac-PL3-Asp-Npg-B5-Asp-TfeGA-Ala-Ala-Phe-Ser-PyrS2-3Thi-BztA-Ser-NH2] | IC50 [1, 2]: 900 nM |
| – | 10 (≈ 21.3 µg/mL) | 38 | 2.54 | – | – | CC(=O)N1CCC[C@]12CC=CCCCC1(CCCC=CCCCOC(=O)N3CC[C@@](C(=O)N[C@@H](Cc4ccccc4Cl)C(=O)N[C@@H](Cc4csc5ccccc45)C(=O)N[C@@H](CCC(N)=O)C(N)=O)(C3)NC(=O)[C@H](CC(N)=O)NC(=O)[C@H](Cc3ccccc3)NC(=O)[C@H](Cc3ccccc3)NC(=O)[C@H](C)NC(=O)[C@H](CN(CC(=O)O)CC(F)(F)F)NC(=O)[C@H](CC(=O)O)NC1=O)NC(=O)[C@H](CC(C)(C)C)NC(=O)[C@H](CC(=O)O)NC2=O (stereo partly drawn) [I-1003, Ac-PL3-Asp-Npg-B5-Asp-TfeGA-Ala-Phe-Phe-Asn-PyrS2-2C1F-BztA-Gln-NH2] | – |
| – | – | – | 2.63 | 176 | 28 (≈ 55.7 µg/mL) | CC[C@H](C)[C@@H]1NC(=O)[C@H](CC(=O)O)NC(=O)[C@]2(CC=CCCCC3(CCCC=CCCCCCC[C@@](C)(C(=O)N[C@@H](Cc4ccccc4)C(=O)N[C@@H](Cc4csc5ccccc45)C(=O)N[C@@H](Cc4c[nH]cn4)C(N)=O)NC(=O)[C@H](CCC(N)=O)NC(=O)[C@H](Cc4ccccc4)NC(=O)[C@H](C)NC(=O)[C@H](C)NC(=O)[C@H](CN(CC(=O)O)CC(F)(F)F)NC(=O)[C@H](CC(=O)O)NC3=O)NC1=O)CCCN2C(C)=O (stereo partly drawn) [I-500, Ac-PL3-Asp-Ile-B5-Asp-TfeGA-Ala-Ala-Phe-Gln-S8-Phe-BztA-His-NH2] | – |
| – | – | 13 | 1.39 | – | 21 (≈ 45.9 µg/mL) | CC(=O)N1CCC[C@]12CC=CCCCC1(CCCC=CCCCOC(=O)N3CC[C@@](C(=O)N[C@@H](Cc4ccsc4)C(=O)N[C@@H](Cc4csc5ccccc45)C(=O)N[C@@H](CCC(N)=O)C(N)=O)(C3)NC(=O)[C@H](CC(N)=O)NC(=O)[C@H](Cc3ccccc3)NC(=O)[C@H](CCCCNC(=O)C3CCN(C4CCN(C)CC4)CC3)NC(=O)[C@H](C)NC(=O)[C@H](CC(=O)O)NC(=O)[C@H](CC(=O)O)NC1=O)NC(=O)[C@H](CC(C)(C)C)NC(=O)[C@H](CC(=O)O)NC2=O (stereo partly drawn) [I-888, Ac-PL3-Asp-Npg-B5-Asp-Asp-Ala-[MeBipipAc]Lys-Phe-Asn-PyrS2-3Thi-BztA-Gln-NH2] | – |

| Structure (SMILES) | CHI Log D (CHI Log D procedure; pH 7.4) | Solubility (Solubility in PBS) [µM] | IC50 ([1]; read-out: beta-Catenin FP IC50) [nM] | chromatographic logD (CHI Log D procedure; pH 7.4, CHI Log D) | IC50 [1, 3] [nM] | Solubility (Solubility in PBS; Solubility (uM)) [µM] | other results |
| --- | --- | --- | --- | --- | --- | --- | --- |
| C[C@@H]1NC(=O)[C@H](C)NC(=O)[C@H](CN(CC(=O)O)CC(F)(F)F)NC(=O)[C@H](Cc2ccsc2)NC(=O)C2(CCCC=CCCCOC(=O)N3CC[C@@](C(=O)N[C@@H](CC(=O)O)C(=O)N[C@@H](Cc4csc5ccccc45)C(=O)N[C@@H](CCC(N)=O)C(N)=O)(C3)NC(=O)[C@H](CC(N)=O)NC(=O)[C@H](Cc3ccccc3)NC1=O)CCCC=CC[C@]1(CCCN1C(=O)CN=[N+]=[N-])C(=O)N[C@@H](CC(=O)O)C(=O)N[C@@H](CC(C)(C)C)C(=O)N2 (stereo partly drawn) [I-1056, AzAc-PL3-Asp-Npg-B5-3Thi-TfeGA-Ala-Ala-Phe-Asn-PyrS2-Asp-BztA-Gln-NH2] | 1.929 | 41 (≈ 84.9 µg/mL) | – | – | – | – | IC50 ([1]; read-out: FP EC50, fluorescence polarization, beta-catenin): 6490 nM |
| C[C@@H]1NC(=O)[C@H](C)NC(=O)[C@H](CN(CC(=O)O)CC(F)(F)F)NC(=O)[C@H](CC(=O)O)NC(=O)C2(CCCC=CCCCOC(=O)N3CC[C@@](C(=O)N[C@@H](Cc4ccccc4Cl)C(=O)N[C@@H](Cc4csc5ccccc45)C(=O)N[C@@H](CCC(N)=O)C(N)=O)(C3)NC(=O)[C@H]([C@@H](C)O)NC(=O)[C@H](Cc3ccccc3)NC1=O)CCCC=CC[C@]1(CCCN1C(=O)CN=[N+]=[N-])C(=O)N[C@@H](CC(=O)O)C(=O)N[C@@H](CC(C)(C)C)C(=O)N2 (stereo partly drawn) [I-1059, AzAc-PL3-Asp-Npg-B5-Asp-TfeGA-Ala-Ala-Phe-Thr-PyrS2-2C1F-BztA-Gln-NH2] | – | 42 (≈ 87.6 µg/mL) | – | – | – | – | IC50 ([1]; FP EC50 (nM), fluorescence polarization, beta-catenin): 42 nM; chromatographic logD (CHI Log D procedure; pH 7.4): 2.44 |
